Columns and labels:
human P2X7 channel = target: T1, human P2X7 channel (Homo sapiens, UniProt Q99572); experiment: human P2X7 channel assay by automated patch-clamp (QPatch16X, whole-cell voltage clamp); type: cell-based; conditions: HEK-293 cells expressing the P2X7 channels; current evoked by 100 microM BzATP; held at -80 mV; room temperature; read-out: hP2X7 (IC50; nM)
T1 construct: expressed in transfected cells; host or cells: HEK-293
T1 sequence (Q99572 1-595): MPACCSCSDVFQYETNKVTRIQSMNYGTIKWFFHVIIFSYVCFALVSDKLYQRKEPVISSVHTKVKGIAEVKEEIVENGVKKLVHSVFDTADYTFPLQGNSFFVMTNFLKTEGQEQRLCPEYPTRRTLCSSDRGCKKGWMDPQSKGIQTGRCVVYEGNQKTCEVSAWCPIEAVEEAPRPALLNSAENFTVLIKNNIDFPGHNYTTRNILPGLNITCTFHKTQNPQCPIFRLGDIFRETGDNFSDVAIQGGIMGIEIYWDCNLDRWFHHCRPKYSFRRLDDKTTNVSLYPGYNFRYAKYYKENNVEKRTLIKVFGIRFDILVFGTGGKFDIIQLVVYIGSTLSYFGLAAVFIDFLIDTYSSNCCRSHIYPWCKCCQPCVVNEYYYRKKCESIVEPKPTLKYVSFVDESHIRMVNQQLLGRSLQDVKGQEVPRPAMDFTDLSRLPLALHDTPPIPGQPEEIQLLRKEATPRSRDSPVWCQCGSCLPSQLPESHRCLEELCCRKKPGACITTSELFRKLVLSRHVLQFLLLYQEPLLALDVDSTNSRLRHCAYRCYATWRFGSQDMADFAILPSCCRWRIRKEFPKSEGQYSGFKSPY
Method: In order to directly monitor the block of P2X7 channel, an electrophysiological assay was developed and implemented on the QPatch16X automated electrophysiology instrument.
HEK-293 cells expressing the P2X7 channels were cultured in modified EMEM.
72 hours before experiment, 5 million cells were seeded onto T225 flasks. Just before the experiment cells were washed twice, detached from the flask with trypsin-EDTA, re-suspended in the suspension solution and placed on the QPatch 16x.
The compounds (20 mM in a 100% DMSO) stored at -20°C were prepared the day of the experiment (a first dilution 1:20 in 100% DMSO to prepare a 1 mM stock solution, then a 1 microM solution in external solution + a serial dilution 1:10).
The standard whole-cell voltage clamp experiments were performed at room temperature. For these experiments the multihole technology was used and the data were sampled at 2 KHz.
The intracellular solution contained (mM) 135 CsF, 10 NaCl, 1 EGTA, 10 HEPES, (pH 7.2 with CsOH) whereas the extracellular contained (mM) 145 NaCl, 4 KCl, 0.5 MgCl2, 1 CaCl2, 10 HEPES, 10 Glc (pH 7.4 with NaOH).
After establishment of the seal and the passage in the whole cell configuration, the cells were held at -80 mV. The P2XR7 current was evoked by applying 100 microM of BzATP alone (4 times) and then in the presence increasing concentrations of the compound under investigation (1, 10, 100 and 1000 nM).
The pre-incubation periods 5 to 8 contain increasing concentrations of the compound of interest (1, 10, 100 and 1000 nM), as illustrated in Figure.
The maximal inward current evoked by BzATP in absence or presence of increasing concentrations of the compounds under investigation was measured and normalized. The potential modulatory effect was measured as % of control and as IC50 determined fitting the dose-response curves data with the following equation: Y = 100/(1+10^(∧)((LogIC50−X)*HillSlope)) [formula] where: • X: log of concentration • Y: normalized response, 100% down to 0%, decreasing as X increases. • LogIC50: same log units as X • HillSlope: slope factor or HS, unitless

rat P2X7R = target: T2, rat P2X7R (Rattus norvegicus, UniProt Q64663); experiment: rat P2X7 Ca2+ influx assay, Screen Quest Fluo-8 No Wash Calcium Assay Kit (FLIPRTETRA); type: cell-based; conditions: HEK-293 cells stably transfected with rat P2X7R; BzATP at ~EC80; 5' incubation with compound; read-out: rP2X7 (IC50; nM)
T2 construct: expressed in transfected cells; host or cells: HEK-293 (stably transfected)
T2 sequence (Q64663 1-595): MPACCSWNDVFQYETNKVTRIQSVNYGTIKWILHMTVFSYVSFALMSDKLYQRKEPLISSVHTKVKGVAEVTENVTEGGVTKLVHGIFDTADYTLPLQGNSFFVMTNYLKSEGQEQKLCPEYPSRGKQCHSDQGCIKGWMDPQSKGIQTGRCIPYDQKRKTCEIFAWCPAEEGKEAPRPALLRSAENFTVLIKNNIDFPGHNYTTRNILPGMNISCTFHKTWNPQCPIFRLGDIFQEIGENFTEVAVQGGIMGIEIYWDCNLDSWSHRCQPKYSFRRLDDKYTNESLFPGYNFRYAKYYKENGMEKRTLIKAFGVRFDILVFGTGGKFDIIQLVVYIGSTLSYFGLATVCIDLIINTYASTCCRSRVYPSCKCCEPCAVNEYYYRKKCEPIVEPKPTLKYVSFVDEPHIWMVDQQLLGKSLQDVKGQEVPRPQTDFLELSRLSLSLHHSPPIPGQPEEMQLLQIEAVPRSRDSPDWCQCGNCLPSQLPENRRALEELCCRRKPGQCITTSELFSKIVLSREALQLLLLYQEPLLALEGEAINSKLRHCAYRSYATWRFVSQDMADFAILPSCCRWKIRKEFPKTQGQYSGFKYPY
Method: Ca^2+ influx was measured in HEK-293 cells stably transfected with the receptor using Screen Quest™ Fluo-8 No Wash Calcium Assay Kit (AAt Bioquest®). Briefly, once inside the cells, the lipophilic blocking groups of Fluo-8 are cleaved by non-specific cell esterases, resulting in a negatively-charged fluorescent-dye that stays inside cells. Its fluorescence increases upon binding to calcium. When HEK-293/P2X7 cells were stimulated with BzATP, Ca^2+ entered the cells and the fluorescence of Fluo-8 NW increaseed. The dye absorption spectrum was compatible with excitation at 488 nm by argon laser sources and its emission wavelength was in the range of 515-575 nm. […]
Compounds were tested at FLIPRTETRA according to the following method: • first injection at FLIPRTETRA of 10 µL of 3x test compound (in Tyrode's buffer 0.3 mM Ca^2+ / Mg^2+-free + DMSO 0.5% final concentration) • 5' incubation • second injection at FLIPRTETRA of 15 µL of 3x BzATP at ∼EC80 (in Tyrode's buffer 0.3 mM Ca^2+ / Mg^2+-free + BSA 0.0003% final concentration) • Fluorescence recording for 3' […]
The effect of the test compounds was measured as percent inhibition vs the reference antagonist and IC50 values were calculated accordingly.

[1] = metabolic stability in mouse liver microsomes; type: in vitro ADME; conditions: 1 µM test compound, 1 mg/mL protein, pH 7.4, 0-60 minutes
Method: In vitro evaluation of test compounds for metabolic stability using Rat or Mouse liver
Test System Rat or Mouse Liver Microsomes
• Test compound concentration: 1 µM • Time Points: 0, 5, 10, 30 and 60 minutes • Final Protein concentration: 1 mg/mL • Number of Replicates: Two • Potassium Phosphate Buffer pH 7.4 100 mM • End Point: % Remaining of Test compound, Half life, Clint • Bioanalysis by LC-MS/MS
10 mM stock solution of test compound were prepared in DMSO and dilute with water: acetonitrile (1:1) to a concentration of 1 mM. Working concentration of 100 µM were prepared by further dilution with water: acetonitrile (1: 1).
100 mL of Milli Q water will be added to K2HPO4 (1.398 g) and KH2PO4 (0.27 g) to get final pH 7.4.
Preincubation mixtures: 2.5 µL Test Cpd. + 75 µL Liver microsomes @ 3.33 mg/mL + 85 µL of 100 mM potassium phosphate buffer (Preincubate for 10 min @ 37°C)
60 min w/o cofactor: 32.5 µL of Preincubation mixture + 17.5 µL of 100 mM potassium phosphate buffer (Incubate for 60 min @ 37°C)
0 min sample: 16.25 µL of Preincubation mixture + 200 µL of acetonitrile containing internal standard + 8.75 µL of cofactor Incubation mixture 62 µL of cofactor (2.5 mM) + Remaining incubation mixture (Incubated for 60 min@ 37°C).
Sample preparation: 25 µL incubation mixture + 200 µL of acetonitrile containing internal standard + Vortex 5 min @ 1200 rpm + Centrifuge 10 min @ 4000 rpm. […]

| Compound | IC50 (human P2X7 channel) | IC50 (rat P2X7R) | Mouse Liver Microsomal Clearance (Cli; µL/min/mg) [1] |
| --- | --- | --- | --- |
| 2-chloro-N-{2-[4-(cyclopropyl)-1,3-thiazol-5-yl]-2-(4,4-difluoropiperidin-1-yl)ethyl}-5-(5-fluoropyrimidin-2-yl)benzamide [Compound 4] | 103 nM |  |  |
| O=C(NCC(c1cnc(C(F)F)s1)N1CCOCC1)c1cc(-c2ncc(F)cn2)ccc1Cl (racemic) [Compound 1, (±)-2-chloro-N-{2-[2-(difluoromethyl)-1,3-thiazol-5-yl]-2-(morpholin-4-yl)ethyl}-5-(5-fluoropyrimidin-2-yl)benzamide] | 47.1 nM | 66 nM |  |
| O=C(NCC(c1cnc(C(F)F)s1)N1CCOCC1)c1cc(-c2ncc(F)cn2)ccc1Cl (single isomer, unassigned; (-)) [Compound 3, (-)-2-chloro-N-{2-[2-(difluoromethyl)-1,3-thiazol-5-yl]-2-(morpholin-4-yl)ethyl}-5-(5-fluoropyrimidin-2-yl)benzamide] | 27 nM | 48 nM |  |
| O=C(NCC(c1scnc1CO)N1CCC(F)(F)CC1)c1cc(-c2ncc(F)cn2)ccc1Cl (centres unmarked) [Compound 5, 2-chloro-N-{2-[4-(hydroxymethyl)-1,3-thiazol-5-yl]-2-(4,4-difluoropiperidin-1-yl)ethyl}-5-(5-fluoropyrimidin-2-yl)benzamide] | 64.6 nM |  |  |
| O=C(NCC(c1scnc1CF)N1CCC(F)(F)CC1)c1cc(-c2ncc(F)cn2)ccc1Cl (centres unmarked) [Compound 6, 2-chloro-N-{2-[4-(fluoromethyl)-1,3-thiazol-5-yl]-2-(4,4-difluoropiperidin-1-yl)ethyl}-5-(5-fluoropyrimidin-2-yl)benzamide] | 33.3 nM |  | 47.3 µL/min/mg |
| O=C(NCC(c1cnc(CF)s1)N1CCOCC1)c1cc(-c2ncc(F)cn2)ccc1Cl (centres unmarked) [Compound 7, 2-chloro-N-{2-[2-(fluoromethyl)-1,3-thiazol-5-yl]-2-(morpholin-4-yl)ethyl}-5-(5-fluoropyrimidin-2-yl)benzamide] | 38.3 nM |  |  |
| O=C(NCC(c1cnc(CF)s1)N1CCC(F)(F)CC1)c1cc(-c2ncc(F)cn2)ccc1Cl (centres unmarked) [Compound 8, 2-chloro-N-{2-[2-(fluoromethyl)-1,3-thiazol-5-yl]-2-(4,4-difluoropiperidin-1-yl)ethyl}-5-(5-fluoropyrimidin-2-yl)benzamide] | 20.3 nM |  |  |
| C#Cc1ncc(C(CNC(=O)c2cc(-c3ncc(F)cn3)ccc2Cl)N2CCC(F)(F)CC2)s1 (centres unmarked) [Compound 9, 2-chloro-N-[2-(4,4-difluoropiperidin-1-yl)-2-(2-ethynyl-1,3-thiazol-5-yl)ethyl]-5-(5-fluoropyrimidin-2-yl)benzamide] | 39.2 nM |  |  |

— patent EP3290417A1, “2-CHLORO-N-[2-(1,3-THIAZOL-5-YL)ETHYL]-5-(5-FLUOROPYRIMIDIN-2-YL)-BENZAMIDES AND THEIR USE AS P2X7 RECEPTOR ANTAGONISTS” (AXXAM S.p.A., priority 2016, dated 2018)
